Test results as given in ChEMBL document CHEMBL1201862, “PubChem BioAssay data set” (2004).
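Compound exposure: 48 hours, 5 concentrations, 96-well plates. At the GI50, growth is halved.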 Activity calls are given as the source filed them. Cut-off read from the data, not from the text of the source: active = GI50 up to about 1.1 µM and inactive = higher.

What was measured:
Assay in all cases: growth of human tumour cells (NCI), 48 h
786-0 = tested on: 786-0
ACHN = tested on: ACHN
HCT-116 = tested on: HCT-116
HOP-62 = tested on: HOP-62
HT-29 = tested on: HT-29
KM12 = tested on: KM12
LOX IMVI = tested on: LOX IMVI
Malme-3M = tested on: Malme-3M
NCI-H23 = tested on: NCI-H23
NCI-H460 = tested on: NCI-H460
OVCAR-3 = tested on: OVCAR-3
RPMI-8226 = tested on: RPMI-8226
RXF 393 = tested on: RXF 393
SF-295 = tested on: SF-295
SK-MEL-28 = tested on: SK-MEL-28
SNB-75 = tested on: SNB-75
UACC-257 = tested on: UACC-257
UACC-62 = tested on: UACC-62
CAKI-1 = tested on: CAKI-1

Measured: GI50

O=C1CC2CCN(C(=O)c3ccccc3)CC2CCN1 (stereo not given)
inactive: 786-0 > 100 µM | ACHN > 100 µM | HCT-116 > 100 µM | HOP-62 > 100 µM | HT-29 > 100 µM | KM12 > 100 µM | LOX IMVI > 100 µM | Malme-3M > 100 µM | NCI-H23 > 100 µM | NCI-H460 > 100 µM | OVCAR-3 > 100 µM | RPMI-8226 > 100 µM | RXF 393 > 100 µM | SF-295 > 100 µM | SK-MEL-28 > 100 µM | SNB-75 > 100 µM | UACC-257 > 100 µM | UACC-62 > 100 µM

O=C(NC12CC3CCC1CC(C3)C2)[C@@H]1CCCN1C(=O)OCc1ccccc1 (stereo not given in full)
inactive: 786-0 76.7 µM | ACHN 44 µM | HCT-116 58.9 µM | HOP-62 > 100 µM | HT-29 36.5 µM | KM12 48.4 µM | LOX IMVI 59 µM | Malme-3M 37.5 µM | NCI-H23 43.3 µM | OVCAR-3 89.5 µM | RPMI-8226 36.5 µM | RXF 393 16.8 µM | SF-295 36.1 µM | SK-MEL-28 31.1 µM | SNB-75 26.7 µM | UACC-257 34.7 µM | UACC-62 83.6 µM

O=C(NCCCN(CCCCN(CCCNC(=O)C(F)(F)F)Cc1ccc2ccccc2c1)Cc1ccc2ccccc2c1)C(F)(F)F
inactive: 786-0 > 100 µM | ACHN > 100 µM | HCT-116 4.45 µM | HOP-62 > 100 µM | HT-29 1.44 µM | KM12 5.83 µM | LOX IMVI 4.36 µM | NCI-H460 2.21 µM | OVCAR-3 > 100 µM | RPMI-8226 2.81 µM | RXF 393 3.77 µM | SF-295 > 28.6 µM | SK-MEL-28 2.32 µM | SNB-75 > 100 µM | UACC-257 2.28 µM | UACC-62 2.31 µM

COC(=O)c1cc(C#N)[nH]c1-c1cccs1
inactive: 786-0 > 100 µM | ACHN 89.9 µM | CAKI-1 56.8 µM | HCT-116 > 100 µM | HOP-62 47.8 µM | KM12 > 100 µM | NCI-H23 58.1 µM | NCI-H460 > 100 µM | OVCAR-3 56.5 µM | RPMI-8226 36.6 µM | RXF 393 22.6 µM | SF-295 86.5 µM | SK-MEL-28 > 100 µM | SNB-75 25.8 µM | UACC-257 > 100 µM | UACC-62 97.7 µM

COc1ccc(OCC(=O)O)c2c1CCCC2=O
inactive: 786-0 > 100 µM | ACHN > 100 µM | HCT-116 > 100 µM | HOP-62 > 100 µM | HT-29 > 100 µM | KM12 > 100 µM | LOX IMVI > 100 µM | Malme-3M > 100 µM | NCI-H23 > 100 µM | NCI-H460 > 100 µM | OVCAR-3 > 100 µM | RPMI-8226 > 100 µM | RXF 393 > 100 µM | SF-295 > 100 µM | SK-MEL-28 > 100 µM | SNB-75 62.8 µM | UACC-257 > 100 µM | UACC-62 81.3 µM
